According to patent publication US11066455B2, “Tmem100 peptides and variants thereof and their use in treating or preventing diseases or conditions” (The Johns Hopkins University, priority 2014, dated 2021):
“Also recorded” adds a separate entry of the source. Peptide text beside a SMILES is read from it. * marks the point of attachment. Palmitoyl = CCCCCCCCCCCCCCCC(=O)*; Myristoyl = CCCCCCCCCCCCCC(=O)*

How the values were obtained:
[1] = test system: neuropathic mechanical hypersensitivity in SNL rats; format: in vivo, rat
From the text: An modified L5 SNL model was produced as described in previously (He et al., 2014; Shechter et al., 2013). Male Sprague-Dawley rats (200-350 g, Harlan, Indianapolis, Ind.) were anesthetized with 2% isoflurane. The left L5 spinal nerve was ligated with a 6-0 silk suture and cut distally. The muscle layer was closed with 4-0 chromic gut suture and the skin closed with metal clips. For intrathecal catheter implantation, a small slit was cut in the atlanto-occipital membrane of rats, into which a saline-filled piece of PE-10 tubing (6-7 cm) was inserted (He et al., 2014). […] Hypersensitivity to punctuate mechanical stimulation was determined with the up-down method by using a series of von Frey filaments (0.38-15.1 g) applied for 4-6 seconds to the test area on the plantar surface of the hindpaw (Chaplan et al., 1994; He et al., 2014). The PWT was determined according to the formula provided by Dixon (Dixon, 1980). […] HC-030031 was purchased from Tocris Bioscience (Bristol, UK). Both drugs were dissolved in 10% dimethylsulfoxide (DMSO), 5% Tween 80 and 85% sterile saline solution. The final working solution which was injected by intrathecal route contained <1% DMSO. The number of animals used in each study was based on experience with similar studies and power analysis calculations. Animals were randomized to the different treatment groups and blinded the experimenter to drug treatment to reduce selection and observation bias. After the experiments were completed, no data point was excluded. STATISTICA 6.0 software (StatSoft, Inc., Tulsa, Okla.) was used to conduct all statistical analyses. The Tukey honestly significant difference (HSD) post-hoc test was used to compare specific data points. Bonferroni correction was applied for multiple comparisons. Two-tailed tests were performed, and data are expressed as mean±SEM; P<0.05 was considered significant in all tests.
(§1) The sequence from the last 28 amino acids of the C-terminus of the Tmem100-3Q mutant protein was synthesized and myristoylated at its N-terminus (myr-[…]-COOH) (SEQ ID NO: 8) by Twentyfirst Century Biochemicals. […] For the calcium imaging assay, the peptides were added to the calcium imaging buffer with a final concentration of 200 nM and incubated for at least […] at room temperature. For the mice behavioral assays, the peptides (5 μL, 2 mM) were injected subcutaneously in the hindpaw at least 30 minutes before testing. For the rat behavior assays, human T100-3Q (h-T100), a palmitoylated cell permeable peptide mutated based on the C terminus of human sequence in Tmem100, was applied. The sequence is Palmitoyl-[…]-COOH (SEQ ID NO: 7).

[2] = test system: ongoing neuropathic pain in SNL rats; assay: Conditioned place preference test for ongoing pain in SNL rats; format: in vivo, rat; settings: intrathecal 50 μM, 10 μl; for conditioned place preference: time in drug-paired chamber, SNL rats: scramble peptide-paired chamber as comparison
From the text: Ongoing, or spontaneous, pain, which is most bothersome to patients, is difficult to treat and difficult to study in animals. The conditioned place preference test has been successfully developed to reveal the presence of non-evoked, ongoing pain and pain relief based on the preference of an animal for the context paired with a pain-relief treatment. The conditioned place preference can also capture the aversive aspects of pain. Strikingly, many studies have shown that the rodent conditioned place preference test accurately reflects the effectiveness of human clinical treatments. Therefore, this test is a powerful approach to investigate the potential effectiveness of new treatments and mechanisms for relief of ongoing pain. Two previous studies have examined the role of TRPA1 in ongoing pain by the conditioned place preference test. […] Because the antagonists used in those studies (HC030031 and Chem5861528) target TRPA1 monomers, it is possible that T100-Mut can inhibit ongoing pain by modulating the TRPA1/V1 complex. This possibility was tested in rodents with SNL-induced ongoing pain using the conditioned place preference test. […] Systemic administration of gabapentin, an analgesic that is known to alleviate neuropathic pain, was used as a positive control (FIG. 16B).

[3] = test system: SNL-induced mechanical hyperalgesia in wild-type mice; assay: Spinal nerve ligation (SNL) in wild-type mice, mechanical hyperalgesia; format: in vivo, mouse; settings: day 6 post ligation, 4 hrs post CPP; 5 μl of 2 mM intradermal in hindpaws
Procedure: In the wild-type mice with spinal nerve ligation (SNL), mechanical hyperalgesia is observed 6 days post ligation. Palmitoylated (Pal) CPP tailored to the C-terminus of human Tmem100-3Q alleviates neuropathic pain/mechanical allodynia in SNL. n=6, *p<0.05 at Day 6 4 hrs post CPP treatment. Scrambled: open bar; human P2-Mut (T100-Mut): black bar (FIG. 17). Peptides (5 μl of 2 mM) were injected intradermally in the hindpaws. Sequences for CPP used in the SNL experiment:
Human P2-Mut (T100-Mut) Pal-[…]-OH (SEQ ID NO: 7); Scrambled Pal-[…]-OH (SEQ ID NO: 19). Pal-palmitoylated in the N termini for each CPP.

TRPA1 [4] = biological target: T1, TRPA1 (UniProt O75762); assay: Calcium imaging of HEK293T cells expressing TRPA1 and TRPV1 (MO or CA); format: cell-based
T1 construct: other: cells expressing A1+V1; other: cells expressing A1+V1+Tmem100
Procedure: (§2) Calcium imaging assays were performed as previously described (Liu et al., 2009). Cells were loaded with 2 μM fura 2-acetomethoxy ester (Molecular Probes) for 30 min in the dark at room temperature or for 45 minutes at 37° C. for DRG and cell lines, respectively. After washing, cells were imaged at 340 and 380 nm excitation to detect intracellular free calcium under a fluorescent microscope (Nikon Eclipse TE2000-S) and Lambda 10B shutter (Sutter Instrument). The cells were bathed in calcium imaging buffer (pH 7.45, 130 mM NaCl, 3 mM KCl, 2.5 mM CaCl2, 10 mM HEPES, 10 mM glucose, 1.2 mM NaHCO3, with sucrose to increase osmolarity to 290 mOsm). The reagents and buffers were applied through a gravity perfusion system at a rate of […], including mustard oil (Sigma 377430), cinnamaldehyde (Sigma C80687), menthol (Sigma M2780), and capsaicin (Sigma M2028). Cells with high baseline 340/380 values (>1.5) were excluded for analysis. For DRG neurons, IB4 staining was performed in the chamber with the dilution of 1:200 (Molecular Probes 121412) for 160 seconds before washing off at the end of each test. Images were processed and analyzed with NIS-Elements BR 2.30 software (Nikon). A responsive cell was defined as one that with greater than a 20% increase in the 340/380 ratio above the baseline. Intracellular calibration for calcium was performed as previously described (Akopian et al., 2007). The data was analyzed with the experimenter blinded to the genotypes or constructs transfected.
(§3) DRG from 3 to 4-week old mice were collected in cold DH10 medium (90% DMEM/F-12, 10% FBS, 100 U/ml penicillin, and 100 μg/ml Streptomycin, Gibco) and treated with enzyme solution in HBSS containing collagenase (1.65 mg/mL, Worthington CLS I) and dispase (3.55 mg/mL, GIBCO 17105-041) at 37° C. for 30 minutes. After trituration and centrifugation, cells were resuspended in DH10, plated on glass coverslips coated with poly-D-lysine (0.5 mg/ml, Stoughton, Mass.) and laminin (10 μg/ml, Invitrogen), and cultured overnight in an incubator at 37° C. The neurons were tested within 24 hours. HEK293T, COS-7, and CHO cells were cultured in a medium consisting of 90% DMEM, 10% FBS, 100 U/mL penicillin, and 100 μg/ml Streptomycin. GlutaMAX (Gibco 35050-061) was also added for CHO cells. For calcium imaging, the cells were plated on glass coverslips coated with poly-D-lysine (0.5 mg/ml, Stoughton, Mass.). In the HEK cell studies the denominator is the cells expressing both TRPA1, TRPV1, and the designated constructs (i.e. Tmem100 or Tmem100-3Q mutant). mCherry:TRPV1:Tmem100 was transfected in 1:8:8 ratio into TRPA1 stable cell line (obtained from N. Tigue from GlaxoSmithKline) and used mCherry as the marker for the cells expressing the constructs 18 hours after transfection with Lipofectamine 2000. The transfection efficiency for Tmem100+TRPV1+TRPA1 triple-positive cells is 27±3%. This efficiency was determined by mCherry(+) divided by total number of cells in the bright fields.
as §1

[5] = test system: paclitaxel (Taxol)-induced mechanical hyperalgesia in wild-type mice; assay: Paclitaxel-induced mechanical hyperalgesia; format: in vivo, mouse; settings: day 7 post paclitaxel; intradermal injection of T100-Mut
Procedure: (§4) Mice were placed in a transparent plastic box (4.5×5×10 cm) on a metal mesh and acclimatized for 30 minutes prior to testing. Each mouse was tested more than 5 times at a specific force manually, and the threshold was determined by the lowest force needed to elicit responses more than 50% of the time.
Mice were injected with paclitaxel (Sigma T7191) intraperitoneally at the dose of 6 mg/kg, as previously described (Materazzi et al., 2012). Seven days after paclitaxel injection, the mice were assayed with Von Frey methods for mechanical hyperalgesia, both before and four hours after injection of cell permeable peptides.

[6] = test system: MO-induced pain in TRPV1-/- mice; assay: Mustard oil injection in TRPV1-/- mice; format: in vivo, mouse
Procedure: as §4
Mice were injected intradermally in the hind paw with 6 μL of 0.2% mustard oil (Sigma-Aldrich 377430) with Hamilton needles (80300). The mice were placed in a plexiglass cylinder, and the total time spent licking and flinching was recorded for the first 10 minutes after injection. Thirty and sixty minutes after injection, the mice were assayed with von Frey filaments for mechanical hyperalgesia.
The sequence from the last 28 amino acids of the C-terminus of the Tmem100-3Q mutant protein was synthesized and myristoylated at its N-terminus (myr-[…]-COOH) (SEQ ID NO: 8) by Twentyfirst Century Biochemicals. […] For the calcium imaging assay, the peptides were added to the calcium imaging buffer with a final concentration of 200 nM and incubated for at least […] at room temperature. For the mice behavioral assays, the peptides (5 μL, 2 mM) were injected subcutaneously in the hindpaw at least 30 minutes before testing. For the rat behavior assays, human T100-3Q (h-T100), a palmitoylated cell permeable peptide mutated based on the C terminus of human sequence in Tmem100, was applied. […]

TRPA1 [7] = test system: T2, TRPA1; assay: Calcium imaging of HEK293T cells expressing TRPA1 and TRPV1 (MO or CA); format: cell-based
T2 construct: percentage of cells responsive to CA; other: shortened CPP 2 μM; CA 10 μM; HEK293 TRPA1+TRPV1; vs scrambled; percentage of cells responsive to MO; other: peptide 200 nM pre-treatment; 500 nM MO; HEK293T TRPA1+TRPV1; percentage of cells that respond to 100 nM MO and 10 μM CA; other: HEK293T TRPA1+TRPV1, Tmem100-3Q-transfected vs lacki; reduction in the percentage of cells responding to MO
Procedure: as §2, §3, §1

Palmitoyl-WKVRQRSKKAQQQESQTALVANQRSLFA-COOH (Palmitoyl-WKVRQRSKKAQQQESQTALVANQRSLFA-OH; SMILES CCCCCCCCCCCCCCCC(=O)N[C@@H](Cc1c[nH]c2ccccc12)C(=O)N[C@@H](CCCCN)C(=O)N[C@H](C(=O)N[C@@H](CCCNC(=N)N)C(=O)N[C@@H](CCC(N)=O)C(=O)N[C@@H](CCCNC(=N)N)C(=O)N[C@@H](CO)C(=O)N[C@@H](CCCCN)C(=O)N[C@@H](CCCCN)C(=O)N[C@@H](C)C(=O)N[C@@H](CCC(N)=O)C(=O)N[C@@H](CCC(N)=O)C(=O)N[C@@H](CCC(N)=O)C(=O)N[C@@H](CCC(=O)O)C(=O)N[C@@H](CO)C(=O)N[C@@H](CCC(N)=O)C(=O)N[C@H](C(=O)N[C@@H](C)C(=O)N[C@@H](CC(C)C)C(=O)N[C@H](C(=O)N[C@@H](C)C(=O)N[C@@H](CC(N)=O)C(=O)N[C@@H](CCC(N)=O)C(=O)N[C@@H](CCCNC(=N)N)C(=O)N[C@@H](CO)C(=O)N[C@@H](CC(C)C)C(=O)N[C@@H](Cc1ccccc1)C(=O)N[C@@H](C)C(=O)O)C(C)C)[C@@H](C)O)C(C)C; listed as Homo sapiens) [h-T100]
contralateral PWT after drug injection ([1]; intrathecal 10 μl): no significant change | ipsilateral paw withdrawal threshold (PWT) vs pre-drug ([1]; intrathecal 10 μl, h-T100 10-100 μM, HC-030031 10-200 μM, scrambled 100 μM): dose-dependently increased | conditioned place preference: time in drug-paired chamber, SNL rats ([2]; listed as P2-Mut): increased | conditioned place preference: time in drug-paired chamber, SNL rats ([2]; listed as human T100-Mut): induced robust the conditioned place preference | chamber preference in sham-operated rats ([2]; sham-operated): did not induce chamber preference | SNL-induced mechanical hyperalgesia / allodynia in mice [3]: alleviates

O=CC=Cc1ccccc1 [CA, cinnamaldehyde, reference compound]
EC50 (TRPA1 [4]; cells expressing A1+V1): 57 µM | EC50 (TRPA1 [4]; cells expressing A1+V1+Tmem100): 21 µM

CCCCCCCCCCCCCC(=O)N[C@@H](Cc1c[nH]c2ccccc12)C(=O)N[C@@H](CCCCN)C(=O)N[C@H](C(=O)N[C@@H](CCCNC(=N)N)C(=O)N[C@@H](CCC(N)=O)C(=O)N[C@@H](CCCNC(=N)N)C(=O)N[C@@H](CC(N)=O)C(=O)N[C@@H](CCCCN)C(=O)N[C@@H](CCCCN)C(=O)N[C@H](C(=O)N[C@@H](CCC(N)=O)C(=O)N[C@@H](CCC(N)=O)C(=O)N[C@@H](CCC(N)=O)C(=O)N[C@@H](CCC(=O)O)C(=O)N[C@@H](CO)C(=O)N[C@@H](CCC(N)=O)C(=O)N[C@H](C(=O)N[C@@H](C)C(=O)N[C@@H](CC(C)C)C(=O)N[C@H](C(=O)N[C@H](C(=O)N[C@@H](CC(N)=O)C(=O)N[C@@H](CCC(N)=O)C(=O)N[C@@H](CCCNC(=N)N)C(=O)N[C@@H](CS)C(=O)N[C@@H](CC(C)C)C(=O)N[C@@H](Cc1ccccc1)C(=O)N[C@@H](C)C(=O)O)C(C)C)C(C)C)[C@@H](C)O)C(C)C)C(C)C [T100-Mut] (Myristoyl-WKVRQRNKKVQQQESQTALVVNQRCLFA-OH)
paclitaxel-induced mechanical hyperalgesia [5]: attenuated; also recorded: alleviated | efficacy and potency of inhibiting neuropathic pain compared with HC-030031 ([1]; SNL rats, intrathecal): comparable or better efficacy and potency | EC50 ([1]; rat, in vivo): 29.3 µM | MO-induced acute pain in TRPV1-/- mice [6]: did not perturb; also recorded: no effect | MO-induced mechanical hyperalgesia in TRPV1-/- mice [6]: did not perturb; also recorded: no effect | reduction in the percentage of cells responding to MO (TRPA1 [7]; heterologous system, T100-Mut treatment vs scrambled): 65% | percentage of cells responsive to MO (TRPA1 [7]; peptide 200 nM pre-treatment, 500 nM MO, HEK293T TRPA1+TRPV1): 6±2.4%
